Results on 18 molecules are retold here after US12612360B2 (Sanofi, priority 2020, dated 2026).

Each structure is given as a SMILES string.

For this assay, the target named is T1, ERα (Homo sapiens, UniProt P03372).
T1 construct: host or cells: MCF7
T1 sequence (P03372 1-595): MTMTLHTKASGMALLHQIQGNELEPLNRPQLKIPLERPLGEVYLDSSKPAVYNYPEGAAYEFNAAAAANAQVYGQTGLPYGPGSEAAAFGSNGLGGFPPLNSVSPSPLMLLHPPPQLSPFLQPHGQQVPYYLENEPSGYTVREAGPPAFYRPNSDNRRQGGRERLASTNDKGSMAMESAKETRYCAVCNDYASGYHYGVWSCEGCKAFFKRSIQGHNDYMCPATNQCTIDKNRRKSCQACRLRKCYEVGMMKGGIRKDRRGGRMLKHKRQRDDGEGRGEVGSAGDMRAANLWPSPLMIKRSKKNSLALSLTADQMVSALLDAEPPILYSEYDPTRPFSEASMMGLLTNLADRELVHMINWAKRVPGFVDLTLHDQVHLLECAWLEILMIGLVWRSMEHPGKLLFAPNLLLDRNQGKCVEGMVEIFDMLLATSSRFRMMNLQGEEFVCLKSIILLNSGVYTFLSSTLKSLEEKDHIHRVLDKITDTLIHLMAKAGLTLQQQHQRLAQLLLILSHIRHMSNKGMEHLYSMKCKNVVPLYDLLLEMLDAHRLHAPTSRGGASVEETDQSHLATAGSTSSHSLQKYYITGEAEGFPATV
As to the kind of experiment: Estrogen receptor degradation activity: breast cancer cell ERα in cell western assay (MCF7 cells). The assay is classed as cell-based. The following applies: for % Degradation At 0.3 μM: 4 hours, relative to fulvestrant 0.1 μM positive control; for DC50: 4 hours post compound addition, concentration which degrades 50% of the estrogen receptor, read-out: Degradation IC50. The method, then: Test: Estrogen Receptor Degradation Activity Said test involves measuring the in vitro degradation activity of the compounds of the Table 1a. The measurements of the degradation activities were made using a breast cancer cell ERα in cell western assay as described hereunder. MCF7 cells (ATCC) were seeded in 384 wells microplate (collagen coated) at a concentration of 10000 cells/30 μL per well in red phenol free MEM alpha medium (invitrogen) containing 5% charcoal dextran striped FBS. The following day, 9 points serial 1:5 dilution of each compound was added to the cells in 2.5 μL at final concentrations ranging from […] (in table 2), or 0.1 μM for fulvestrant (using as positive control). At 4 hours post compound addition the cells were fixed by adding 25 μL of formalin (final concentration 5% formalin containing 0.1% triton) for 10 minutes at room temperature and then washed twice with PBS. Then, 50 μL of LI-COR blocking buffer containing 0.1% Triton was added to plate for 30 minutes at room temperature. LI-COR blocking buffer was removed and cells were incubated overnight at cold room with 50 μL anti-ER rabbit monoclonal antibody (Thermo scientific MA1-39540) diluted at 1:1000 in LI-COR blocking buffer containing 0.1% tween-20. Wells which were treated with blocking buffer but no antibody were used as background control. Wells were washed twice with PBS (0.1% tween-20) and incubated at 37° C. for 60 minutes in LI-COR (0.1% tween-20) containing goat anti-rabbit antibody Alexa 488 (1:1000) and Syto-64 a DNA dye (2 μM final concentration). Cells were then washed 3 times in PBS and scanned in ACUMEN explorer (TTP-Labtech). Integrated intensities in the green fluorescence and red fluorescence were measured to determine the levels of ERα and DNA respectively. The degradation activity with respect to estrogen receptors in this test is given by the concentration which degrades 50% of the estrogen receptor (or IC50) in nM. […] DMSO−fulvestrant)).

As for `O=C(O)c1ccc2c(c1)CCCC(c1cccc(F)c1C(F)(F)F)=C2c1ccc(C=C2CN(CCC(F)F)C2)cc1` [Example 26, 9-(4-((1-(3,3-difluoropropyl)azetidin-3-ylidene)methyl)phenyl)-8-(3-fluoro-2-(trifluoromethyl)phenyl)-6,7-dihydro-5H-benzo[7]annulene-3-carboxylic acid], the “% Degradation At 0.3 μM” value worked out at 91% and the DC50 turned out to be 0.4 nM.

With `Cc1cc(C2=C(c3ccc(F)cc3F)CCCc3cc(C(=O)O)ccc32)cc(F)c1C=C1CN(CCCF)C1` [Example 27, 8-(2,4-difluorophenyl)-9-(3-fluoro-4-((1-(3-fluoropropyl)azetidin-3-ylidene)methyl)-5-methylphenyl)-6,7-dihydro-5H-benzo[7]annulene-3-carboxylic acid], the “% Degradation At 0.3 μM” value was 92% and the DC50 came to 0.9 nM.

In the case of `Cc1cc(F)ccc1C1=C(c2cc(C)c(C=C3CN(CCCF)C3)c(F)c2)c2ccc(C(=O)O)cc2CCC1` [Example 28, 8-(4-fluoro-2-methylphenyl)-9-(3-fluoro-4-((1-(3-fluoropropyl)azetidin-3-ylidene)methyl)-5-methylphenyl)-6,7-dihydro-5H-benzo[7]annulene-3-carboxylic acid], the “% Degradation At 0.3 μM” value was determined as 90% and the DC50 was found to be 1 nM.

Turning to `Cc1c(C2=C(c3ccc(C=C4CN(CCCF)C4)cc3)c3ccc(C(=O)O)cc3CCC2)ccc(F)c1F` [Example 29, 8-(3,4-difluoro-2-methylphenyl)-9-(4-((1-(3-fluoropropyl)azetidin-3-ylidene)methyl)phenyl)-6,7-dihydro-5H-benzo[7]annulene-3-carboxylic acid], the “% Degradation At 0.3 μM” value came out at 96% and the DC50 was determined as 0.3 nM.

As for `Cc1cc(F)ccc1C1=C(c2ccc(C=C3CN(CCCF)C3)c(F)c2C)c2ccc(C(=O)O)cc2CCC1` [Example 30, 8-(4-fluoro-2-methylphenyl)-9-(3-fluoro-4-((1-(3-fluoropropyl)azetidin-3-ylidene)methyl)-2-methylphenyl)-6,7-dihydro-5H-benzo[7]annulene-3-carboxylic acid], the “% Degradation At 0.3 μM” value was 91% and the DC50 is 1.8 nM.

Take `Cc1cc(C=C2CN(CCCF)C2)cc(F)c1C1=C(c2ccc(F)cc2F)CCCc2cc(C(=O)O)ccc21` [Example 31, 8-(2,4-difluorophenyl)-9-(2-fluoro-4-((1-(3-fluoropropyl)azetidin-3-ylidene)methyl)-6-methylphenyl)-6,7-dihydro-5H-benzo[7]annulene-3-carboxylic acid]: the “% Degradation At 0.3 μM” value is 92% and the DC50 worked out at 0.8 nM.

On to `O=C(O)c1ccc2c(c1)CCCC(c1c(F)cc(F)cc1F)=C2c1ccc(C=C2CN(CCCF)C2)cc1` [Example 33, 9-(4-((1-(3-fluoropropyl)azetidin-3-ylidene)methyl)phenyl)-8-(2,4,6-trifluorophenyl)-6,7-dihydro-5H-benzo[7]annulene-3-carboxylic acid], for which the “% Degradation At 0.3 μM” value was determined as 92% and the DC50 amounted to 0.3 nM.

For the molecule `O=C(O)c1ccc2c(c1)CCCC(c1ccc(C3CC3)cc1F)=C2c1ccc(C=C2CN(CCCF)C2)cc1` [Example 34, 8-(4-cyclopropyl-2-fluorophenyl)-9-(4-((1-(3-fluoropropyl)azetidin-3-ylidene)methyl)phenyl)-6,7-dihydro-5H-benzo[7]annulene-3-carboxylic acid], the “% Degradation At 0.3 μM” value is given as 90% and the DC50 is 0.3 nM.

On to `O=C(O)c1ccc2c(c1)CCCC(c1ncc(Cl)cc1C(F)(F)F)=C2c1ccc(C=C2CN(CCCF)C2)cc1` [Example 35, 8-(5-chloro-3-(trifluoromethyl)pyridin-2-yl)-9-(4-((1-(3-fluoropropyl)azetidin-3-ylidene)methyl)phenyl)-6,7-dihydro-5H-benzo[7]annulene-3-carboxylic acid], for which the “% Degradation At 0.3 μM” value came to 93% and the DC50 amounted to 0.4 nM.

Turning to `Cc1cc(F)ccc1C1=C(c2cc(F)c(C=C3CN(CCCF)C3)c(F)c2)c2ccc(C(=O)O)cc2CCC1` [Example 36, 9-(3,5-difluoro-4-((1-(3-fluoropropyl)azetidin-3-ylidene)methyl)phenyl)-8-(4-fluoro-2-methylphenyl)-6,7-dihydro-5H-benzo[7]annulene-3-carboxylic acid], the “% Degradation At 0.3 μM” value is on record as 89% and the DC50 was determined as 0.4 nM.

With `O=C(O)c1ccc2c(c1)CCCC(c1ccc(Cl)cc1C(F)(F)F)=C2c1ccc(C=C2CN(CCCF)C2)cc1` [Example 37, 8-(4-chloro-2-(trifluoromethyl)phenyl)-9-(4-((1-(3-fluoropropyl)azetidin-3-ylidene)methyl)phenyl)-6,7-dihydro-5H-benzo[7]annulene-3-carboxylic acid], the “% Degradation At 0.3 μM” value was determined as 87% and the DC50 turned out to be 0.4 nM.

For `Cc1ccc(F)cc1C1=C(c2ccc(C=C3CN(CCCF)C3)cc2)c2ccc(C(=O)O)cc2CCC1` [Example 38, 8-(5-fluoro-2-methylphenyl)-9-(4-((1-(3-fluoropropyl)azetidin-3-ylidene)methyl)phenyl)-6,7-dihydro-5H-benzo[7]annulene-3-carboxylic acid], the “% Degradation At 0.3 μM” value is 91% and the DC50 amounted to 0.2 nM.

In the case of `Cc1cc(C2CC2)ccc1C1=C(c2ccc(C=C3CN(CCCF)C3)cc2)c2ccc(C(=O)O)cc2CCC1` [Example 39, 8-(4-cyclopropyl-2-methylphenyl)-9-(4-((1-(3-fluoropropyl)azetidin-3-ylidene)methyl)phenyl)-6,7-dihydro-5H-benzo[7]annulene-3-carboxylic acid], the “% Degradation At 0.3 μM” value was 87% and the DC50 was found to be 0.2 nM.

Regarding `O=C(O)c1ccc2c(c1)CCCC(c1ccc(F)cc1C1CC1)=C2c1ccc(C=C2CN(CCCF)C2)cc1` [Example 40, 8-(2-cyclopropyl-4-fluorophenyl)-9-(4-((1-(3-fluoropropyl)azetidin-3-ylidene)methyl)phenyl)-6,7-dihydro-5H-benzo[7]annulene-3-carboxylic acid], the “% Degradation At 0.3 μM” value is on record as 87% and the DC50 was determined as 0.3 nM.

With `Cc1ccc(C2=C(c3ccc(C=C4CN(CCCF)C4)cc3)c3ccc(C(=O)O)cc3CCC2)c(Cl)c1` [Example 41, 8-(2-chloro-4-methylphenyl)-9-(4-((1-(3-fluoropropyl)azetidin-3-ylidene)methyl)phenyl)-6,7-dihydro-5H-benzo[7]annulene-3-carboxylic acid], the “% Degradation At 0.3 μM” value was 92% and the DC50 was determined as 0.2 nM.

As for `O=C(O)c1ccc2c(c1)CCCC(c1c(F)cccc1Cl)=C2c1ccc(C=C2CN(CCCF)C2)cc1` [Example 42, 8-(2-chloro-6-fluorophenyl)-9-(4-((1-(3-fluoropropyl)azetidin-3-ylidene)methyl)phenyl)-6,7-dihydro-5H-benzo[7]annulene-3-carboxylic acid], the “% Degradation At 0.3 μM” value came out at 91% and the DC50 was found to be 0.2 nM.

On to `O=C(O)c1ccc2c(c1)CCCC(c1ccc(F)cc1F)=C2c1ccc(C=C2CN(CCCF)C2)c(F)c1F` [Example 43, 9-(2,3-difluoro-4-((1-(3-fluoropropyl)azetidin-3-ylidene)methyl)phenyl)-8-(2,4-difluorophenyl)-6,7-dihydro-5H-benzo[7]annulene-3-carboxylic acid], for which the “% Degradation At 0.3 μM” value was 92% and the DC50 stood at 0.4 nM.

Consider `Cc1cc(C2=C(c3ccc(F)cc3C)CCCc3cc(C(=O)O)ccc32)ccc1C=C1CN(CCCF)C1.Cl` [Example 44, 8-(4-fluoro-2-methylphenyl)-9-(4-((1-(3-fluoropropyl)azetidin-3-ylidene)methyl)-3-methylphenyl)-6,7-dihydro-5H-benzo[7]annulene-3-carboxylic acid hydrochloride], for which the “% Degradation At 0.3 μM” value came out at 91% and the DC50 came out at 0.4 nM.
